Data from US9433663B2, “Mobilization of hematopoietic stem cells” (Children's Hospital Medical Center, priority 2008, dated 2016).

Experiments:
[1] = molecular target: Cdc42 (Homo sapiens, UniProt P60953); experiment: nucleotide exchange: intersectin-induced association of mant-GDP with Cdc42; assay type: biochemical; settings: FIG. 1b
From the text: For example, even at 10 times the IC50 of Cdc42, a 50% inhibition of the association of mant-GDP with Rac or Rho was not achieved.

[2] = molecular target: T1, RhoA (Mus musculus, UniProt Q9QUI0); experiment: Rho GTPase effector pull-down in murine LDBM cells, RhoA; assay type: cell-based; settings: parallel pull-down assay
T1 construct: endogenous in cells; host or cells: murine LDBM cells
Method: To analyze the effects of CASIN on the formation of active GTP-bound Cdc42, RhoA, and Rac1, effector pulldown assays were carried out as described previously. Cdc42GAP^−/− MEF, LDBM, CD34^+ hCB cells were treated with CASIN at doses of 5-20 μM in parallel with vehicle control for 2 hrs after overnight starvation, and stimulated with cytokines subsequently. And then cells were lysed in a buffer containing 20 mM Tris-HCL (pH 7.6), 100 mM NaCl, 1% Triton X-100, 10 mM MgCl2, 2 mM NaF, and Protease inhibitor cocktail (Roche Diagnostics). Lysates were incubated with GST-P21-binding domain of PAK1 for RAC1-GTP and Cdc42-GTP, and GST-RBD domain of Rhotekin for RhoA-GTP respectively. Both bound- and unbound-form of Rho GTPases were probed by immunoblotting with antibodies specific for Rac1 (BD biosciences), Cdc42 (BD biosciences), and RhoA (cell signaling).

[3] = tested on: 32D myeloid progenitors; experiment: transwell migration of 32D progenitors towards SDF1α; assay type: cell-based, murine; settings: dose-dependent manner
From the text: To shed light on potential roles of CASIN in HSPC mobilization, the effects of CASIN on Cdc42-related cellular functions was studied, including adhesion, migration, and F-actin polymerization of progenitor cells in 32D myeloid progenitors. […] SDF-1α stimulation causes a reorganization of F-actin into a cortical ring around the cells. […] Thirdly, to gain further insight into cellular specificity and efficacy of CASIN, and also to rule out possible toxic effects by CASIN, Cdc42-involved BM progenitor cell functions were examined, including proliferation, adhesion, migration, and F-actin polymerization, in Cdc42^+/+ cells in parallel with Cdc42^−/− cells. In line with additional studies in a Cdc42 conditional knockout mouse model as described herein, Cdc42^−/− LDBM cells have increased CFU-forming progenitors compared to those of Cdc42^+/+.

T1 sequence (Q9QUI0 whole entry): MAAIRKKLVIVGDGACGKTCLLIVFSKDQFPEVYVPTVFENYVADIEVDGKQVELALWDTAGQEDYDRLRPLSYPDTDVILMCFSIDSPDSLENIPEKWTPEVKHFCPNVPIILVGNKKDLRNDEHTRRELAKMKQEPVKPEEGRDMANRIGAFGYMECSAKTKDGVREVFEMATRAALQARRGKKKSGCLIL
Sequence of Cdc42 (P60953 whole entry, species assumed): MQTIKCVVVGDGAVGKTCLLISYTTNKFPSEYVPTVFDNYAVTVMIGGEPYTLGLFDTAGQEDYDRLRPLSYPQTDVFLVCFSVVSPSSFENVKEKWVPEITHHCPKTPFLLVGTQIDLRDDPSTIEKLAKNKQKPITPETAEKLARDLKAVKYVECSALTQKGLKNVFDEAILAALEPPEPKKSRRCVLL

Compound: OCCNC1CCCc2c1[nH]c1ccc(-c3ccccc3)cc21 (stereo not drawn) [CASIN]
- association of mant-GDP with Cdc42 induced by intersectin [1]: dose-dependent inhibition
- RhoA activity [2]: no effects
- migration of 32D progenitor cells towards SDF1α gradient [3]: significantly reduced migration
